pIC50: −log10 of the molar value.
Target: recombinant His-tag Wip1(2-420) protein (amino acids #2-420) (Homo sapiens (Human), UniProt O15297)
Experiment: Wip1(2-420) phosphatase enzyme FDP assay
Type: biochemical
Conditions: fluorescein diphosphate (FDP) substrate, RT 2 hours, fluorescence Ex485/Em535; read-out: WIP1 (Truncated 2-420) FDP Assay: IC50

Sequence of recombinant His-tag Wip1(2-420) protein (amino acids #2-420) (O15297 2-420): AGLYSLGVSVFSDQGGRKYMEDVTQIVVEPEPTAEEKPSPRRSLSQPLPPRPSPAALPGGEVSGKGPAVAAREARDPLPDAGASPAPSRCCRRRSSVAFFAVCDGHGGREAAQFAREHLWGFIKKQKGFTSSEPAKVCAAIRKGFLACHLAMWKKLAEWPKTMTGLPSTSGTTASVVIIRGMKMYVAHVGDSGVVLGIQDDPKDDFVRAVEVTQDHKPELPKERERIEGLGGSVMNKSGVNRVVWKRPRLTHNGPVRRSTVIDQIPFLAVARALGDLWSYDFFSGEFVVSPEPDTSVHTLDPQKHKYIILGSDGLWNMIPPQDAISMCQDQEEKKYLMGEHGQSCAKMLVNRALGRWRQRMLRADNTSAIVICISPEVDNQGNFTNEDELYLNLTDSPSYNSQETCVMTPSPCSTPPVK

SMILES | pIC50
Cc1ncc(Cl)cc1N[C@@H](C)c1ccc(C(=O)N[C@@H](CC2CCCC2)C(=O)NC2CCC(C#N)C2)s1 (stereo partly drawn) [Compound 115, (2S)-2-({5-[(1S)-1-[(5-chloro-2-methylpyridin-3-yl)amino]ethyl]thiophen-2-yl}formamido)-N-(3-cyanocyclopentyl)-3-cyclopentylpropanamide] | 7.96
Cc1ncc(Cl)cc1N[C@@H](C)c1ccc(C(=O)N[C@@H](CC2CCC3CC32)C(=O)NC2CC2)s1 (stereo in doubt) [Compound 273, (2S)-3-[(2S)-bicyclo[3.1.0]hexan-2-yl]-2-({5-[(1S)-1-[(5-chloro-2-methylpyridin-3-yl)amino]ethyl]thiophen-2-yl}formamido)-N-cyclopropylpropanamide] | 8.15
C[C@@H](c1ccc(C(=O)N[C@@H](CC2CCCC2)C(=O)NC2CC2)s1)N1CCCc2ccc(Cl)cc21 [Compound 248, (2S)-2-({5-[(1S)-1-(7-chloro-1,2,3,4-tetrahydroquinolin-1-yl)ethyl]thiophen-2-yl}formamido)-3-cyclopentyl-N-cyclopropylpropanamide] | 7.80
Cc1ncc(Cl)cc1N[C@@H](C)c1ccc(C(=O)N[C@@H](CC2CCCC2)C(=O)N[C@H]2C[C@@H](C)C2)s1 [Compound 99, (2S)-2-({5-[(1S)-1-[(5-chloro-2-methylpyridin-3-yl)amino]ethyl]thiophen-2-yl}formamido)-3-cyclopentyl-N-[(1r,3s)-3-methylcyclobutyl]propanamide] | 8.15
COCC(Nc1cc(Cl)cnc1C)c1ccc(C(=O)N[C@@H](CC2CCCC2)C(=O)NC2CC2)s1 (stereo partly drawn) [Compound 176, (2S)-2-[(5-{1-[(5-chloro-2-methylpyridin-3-yl)amino]-2-methoxyethyl}thiophen-2-yl)formamido]-3-cyclopentyl-N-cyclopropylpropanamide] | 7.68
Cc1ncc(Cl)cc1N[C@@H](C)c1ccc(C(=O)N[C@@H](C[C@H]2CCC3C[C@@H]32)C(=O)NC2CC2)s1 (stereo partly drawn) [Compound 272, (2S)-3-[(2R)-bicyclo[3.1.0]hexan-2-yl]-2-({5-[(1S)-1-[(5-chloro-2-methylpyridin-3-yl)amino]ethyl]thiophen-2-yl}formamido)-N-cyclopropylpropanamide] | 7.85
Cc1ncc(Cl)cc1N[C@@H](C)c1ccc(C(=O)N[C@@H](CC2CCCC2)C(=O)Nc2ccc(C#N)cc2)s1 [Compound 85, (2S)-2-({5-[(1S)-1-[(5-chloro-2-methylpyridin-3-yl)amino]ethyl]thiophen-2-yl}formamido)-N-(4-cyanophenyl)-3-cyclopentylpropanamide] | 8.15
Cc1ncc(Cl)cc1N[C@@H](C)c1ccc(C(=O)N[C@H](C(=O)NC2CC2)C(C)(C)C)s1 [Compound 235, (2S)-2-({5-[(1S)-1-[(5-chloro-2-methylpyridin-3-yl)amino]ethyl]thiophen-2-yl}formamido)-N-cyclopropyl-3,3-dimethylbutanamide] | 5.25
Cc1ncc(Cl)cc1N[C@@H](c1ccc(C(=O)N[C@@H](CC2CCCC2)C(=O)NC2CC2)s1)C(F)(F)F [Compound 184, (2S)-2-({5-[(1R)-1-[(5-chloro-2-methylpyridin-3-yl)amino]-2,2,2-trifluoroethyl]thiophen-2-yl}formamido)-3-cyclopentyl-N-cyclopropylpropanamide] | 6.88
Cc1ncc(Cl)cc1N[C@@H](C)c1ccc(C(=O)N[C@@H](CC2CCCC2)C(=O)N[C@H]2C[C@H](C(=O)O)C2)s1 [Compound 95, (1r,3r)-3-[(2S)-2-({5-[(1S)-1-[(5-chloro-2-methylpyridin-3-yl)amino]ethyl]thiophen-2-yl}formamido)-3-cyclopentylpropanamido]cyclobutane-1-carboxylic acid] | 8.00
Cc1ncc(Cl)cc1N[C@@H](C)c1ccc(C(=O)N[C@@H](CC2CCCC2)C(=O)NC23COC(C2)C3)s1 [Compound 113, (2S)-2-({5-[(1S)-1-[(5-chloro-2-methylpyridin-3-yl)amino]ethyl]thiophen-2-yl}formamido)-3-cyclopentyl-N-{2-oxabicyclo[2.1.1]hexan-4-yl}propanamide] | 7.96
Cc1ncc(Cl)cc1N[C@@H](C)c1ccc(C(=O)N[C@@H](CC2CCCC2)C(=O)Nc2ccnc(C(N)=O)c2)s1 [Compound 135, 4-[(2S)-2-({5-[(1S)-1-[(5-chloro-2-methylpyridin-3-yl)amino]ethyl]thiophen-2-yl}formamido)-3-cyclopentylpropanamido]pyridine-2-carboxamide] | 8.30
COc1cnc2ccc(NC(=O)[C@H](CC3CCCC3)NC(=O)c3ccc([C@H](C)Nc4cc(Cl)cnc4C)s3)cc2c1 [Compound 180, (2S)-2-({5-[(1S)-1-[(5-chloro-2-methylpyridin-3-yl)amino]ethyl]thiophen-2-yl}formamido)-3-cyclopentyl-N-(3-methoxyquinolin-6-yl)propanamide] | 8.40
Cc1ncc(Cl)cc1N[C@@H](C)c1ccc(C(=O)N[C@@H](C(=O)NC2CC2)C(C)(C)C)s1 [Compound 234, (2R)-2-({5-[(1S)-1-[(5-chloro-2-methylpyridin-3-yl)amino]ethyl]thiophen-2-yl}formamido)-N-cyclopropyl-3,3-dimethylbutanamide] | < 5.00
Cc1ncc(Cl)cc1NC(Cn1cccn1)c1ccc(C(=O)N[C@@H](CC2CCCC2)C(=O)NC2CC2)s1 (stereo partly drawn) [Compound 191, (2S)-2-[(5-{1-[(5-chloro-2-methylpyridin-3-yl)amino]-2-(1H-pyrazol-1-yl)ethyl}thiophen-2-yl)formamido]-3-cyclopentyl-N-cyclopropylpropanamide] | 7.89
C[C@H](Nc1cc(Cl)cnc1C(C)(C)O)c1ccc(C(=O)N[C@@H](CC2CCCC2)C(=O)NC2CC2)s1 [Compound 194, (2S)-2-({5-[(1S)-1-{[5-chloro-2-(2-hydroxypropan-2-yl)pyridin-3-yl]amino}ethyl]thiophen-2-yl}formamido)-3-cyclopentyl-N-cyclopropylpropanamide] | 8.22
Cc1ncc(Cl)cc1N[C@@H](C)c1ccc(C(=O)N[C@@H](CC2CCCC2)C(=O)NC2CC3(CCC3)C2)s1 [Compound 104, (2S)-2-({5-[(1S)-1-[(5-chloro-2-methylpyridin-3-yl)amino]ethyl]thiophen-2-yl}formamido)-3-cyclopentyl-N-{spiro[3.3]heptan-2-yl}propanamide] | 8.22
C[C@H](c1ccc(C(=O)N[C@@H](CC2CCCC2)C(=O)NC2CC2)s1)N(C)c1cncc(Cl)c1 [Compound 90, (2S)-2-({5-[(1R)-1-[(5-chloropyridin-3-yl)(methyl)amino]ethyl]thiophen-2-yl}formamido)-3-cyclopentyl-N-cyclopropylpropanamide] | 7.96
C[C@H](Nc1cc(Cl)cnc1C(N)=O)c1ccc(C(=O)N[C@@H](CC2CCCC2)C(=O)Nc2cnn(C)c2)s1 [Compound 136, 5-chloro-3-{[(1S)-1-(5-{[(1S)-2-cyclopentyl-1-[(1-methyl-1H-pyrazol-4-yl)carbamoyl]ethyl]carbamoyl}thiophen-2-yl)ethyl]amino}pyridine-2-carboxamide] | 8.30
C[C@@H](Nc1cc(Cl)cnc1C(=O)O)c1ccc(C(=O)N[C@@H](CC2CCCC2)C(=O)NC2CC2)s1 [Compound 274, 5-chloro-3-{[(1R)-1-(5-{[(1S)-2-cyclopentyl-1-(cyclopropylcarbamoyl)ethyl]carbamoyl}thiophen-2-yl)ethyl]amino}pyridine-2-carboxylic acid] | 6.09
Cc1ncc(Cl)cc1N[C@@H](C)c1ccc(C(=O)N[C@@H](CC2CCCC2)C(=O)N[C@H]2C[C@H](C#N)C2)s1 [Compound 211, (2S)-2-({5-[(1S)-1-[(5-chloro-2-methylpyridin-3-yl)amino]ethyl]thiophen-2-yl}formamido)-3-cyclopentyl-N-[(1r,3r)-3-cyanocyclobutyl]propanamide] | 8.00
Cc1ncc(Cl)cc1NC(CC1CCN(C)CC1)c1ccc(C(=O)N[C@@H](CC2CCCC2)C(=O)NC2CC2)s1 (stereo partly drawn) [Compound 131, (2S)-2-[(5-{1-[(5-chloro-2-methylpyridin-3-yl)amino]-2-(1-methylpiperidin-4-yl)ethyl}thiophen-2-yl)formamido]-3-cyclopentyl-N-cyclopropylpropanamide] | 7.10
Cc1ncc(Cl)cc1N[C@@H](C)c1ccc(C(=O)N[C@@H](CC2CCCCC2)C(=O)Nc2ccc(F)cc2)s1 [Compound 112, (2S)-2-({5-[(1S)-1-[(5-chloro-2-methylpyridin-3-yl)amino]ethyl]thiophen-2-yl}formamido)-3-cyclohexyl-N-(4-fluorophenyl)propanamide] | 8.40
COc1ccc(-c2ncc(Cl)cc2N[C@@H](C)c2ccc(C(=O)N[C@@H](CC3CCCC3)C(=O)NC3CC3)s2)cc1 [Compound 236, (2S)-2-({5-[(1S)-1-{[5-chloro-2-(4-methoxyphenyl)pyridin-3-yl]amino}ethyl]thiophen-2-yl}formamido)-3-cyclopentyl-N-cyclopropylpropanamide] | 8.15
C[C@@H](Nc1cc(Cl)cnc1C(C)(C)O)c1ccc(C(=O)N[C@@H](CC2CCCC2)C(=O)NC2CC2)s1 [Compound 193, (2S)-2-({5-[(1R)-1-{[5-chloro-2-(2-hydroxypropan-2-yl)pyridin-3-yl]amino}ethyl]thiophen-2-yl}formamido)-3-cyclopentyl-N-cyclopropylpropanamide] | 6.50
Cc1ncc(Cl)cc1N[C@@H](C)c1ccc(C(=O)N[C@@H](CC2CCCC2)C(=O)Nc2cnn(C)c2)s1 [Compound 98, (2S)-2-({5-[(1S)-1-[(5-chloro-2-methylpyridin-3-yl)amino]ethyl]thiophen-2-yl}formamido)-3-cyclopentyl-N-(1-methyl-1H-pyrazol-4-yl)propanamide] | 8.22
Cc1ncc(Cl)cc1N[C@@H](C)c1ccc(C(=O)N[C@H](CC2CCCC2)C(=O)Nc2ccnc(O)c2)s1 [Compound 140, (2R)-2-({5-[(1S)-1-[(5-chloro-2-methylpyridin-3-yl)amino]ethyl]thiophen-2-yl}formamido)-3-cyclopentyl-N-(2-hydroxypyridin-4-yl)propanamide] | 6.40

Source: patent US20240116910A1, “Heterocycles as WIP1 Inhibitors” (PMV Pharmaceuticals, Inc., priority 2022, published 2024)
